Columns and labels:
ORAC antioxidant assay = assay type: physicochemical; details: read-out: ORAC antioxidant EC50; positive control
recombinant human MAO-B = biological target: T1, recombinant human MAO-B (Homo sapiens, UniProt P27338); assay: MAO-B enzyme inhibition assay; assay type: biochemical
T1 sequence (P27338 1-520): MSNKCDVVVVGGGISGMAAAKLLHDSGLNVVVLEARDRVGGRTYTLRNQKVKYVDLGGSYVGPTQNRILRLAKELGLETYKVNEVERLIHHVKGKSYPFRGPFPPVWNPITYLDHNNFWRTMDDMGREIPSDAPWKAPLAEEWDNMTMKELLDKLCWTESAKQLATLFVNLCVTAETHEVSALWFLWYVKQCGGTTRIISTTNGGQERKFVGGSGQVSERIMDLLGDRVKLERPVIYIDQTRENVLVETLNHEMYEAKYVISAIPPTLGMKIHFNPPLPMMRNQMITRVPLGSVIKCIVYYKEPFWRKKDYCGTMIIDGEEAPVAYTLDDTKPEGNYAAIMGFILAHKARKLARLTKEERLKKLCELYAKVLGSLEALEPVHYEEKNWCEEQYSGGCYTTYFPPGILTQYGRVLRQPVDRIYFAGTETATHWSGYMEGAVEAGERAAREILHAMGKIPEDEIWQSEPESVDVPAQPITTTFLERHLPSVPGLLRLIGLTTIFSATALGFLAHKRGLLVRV

| SMILES | EC50 (ORAC antioxidant assay) [µM] | IC50 (recombinant human MAO-B) [µM] |
| --- | --- | --- |
| O=C1O[C@H]([C@@H](O)CO)C(O)=C1O [Vitamin C] | 25.9 |  |
| NS(=O)(=O)Cc1noc2ccccc12 [Zonisamide] |  | 22.6 |

Reference: article PMC8570587 (Medicinal chemistry research : an international journal for …, 2021)
